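Values below derive from 48-hour exposures of cells grown in 96-well plates, with endpoints linearly interpolated between the two concentrations bracketing the appropriate inhibition level. TGI denotes the concentration required for complete inhibition of growth.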
Tests used:
Experiment in all cases: inhibition of tumour cell growth, NCI panel, 48 h
[1] = tested on: NCI-H23 lung
[2] = tested on: MDA-MB-435
[3] = tested on: SF-295 CNS
[4] = tested on: 786-0 renal
[5] = tested on: HCT-15 colon
[6] = tested on: NCI/ADR-RES ovarian
[7] = tested on: MDA-N
[8] = tested on: OVCAR-5 ovarian
[9] = tested on: A498 renal
[10] = tested on: IGROV1 ovarian
[11] = tested on: NCI-H226 lung
[12] = tested on: SK-OV-3 ovarian
[13] = tested on: UO-31 renal
[14] = tested on: MOLT-4 leukemia
[15] = tested on: SW-620 colon
[16] = tested on: OVCAR-8 ovarian
[17] = tested on: U251 CNS
[18] = tested on: M14 melanoma
[19] = tested on: BT-549 breast
[20] = tested on: K-562 leukemia
[21] = tested on: A549 NSCLC
[22] = tested on: PC-3 prostate
[23] = tested on: SK-MEL-28 melanoma
[24] = tested on: SF-268 CNS
[25] = tested on: OVCAR-4 ovarian
[26] = tested on: CAKI-1 renal
[27] = tested on: MDA-MB-231 breast
[28] = tested on: TK-10 renal
[29] = tested on: HOP-92 NSCLC
[30] = tested on: SK-MEL-5 melanoma
[31] = tested on: CCRF-CEM leukemia
[32] = tested on: UACC-62 melanoma
[33] = tested on: T-47D breast
[34] = tested on: SNB-75 CNS
[35] = tested on: SF-539 CNS
[36] = tested on: OVCAR-3 ovarian
[37] = tested on: DU-145 prostate
[38] = tested on: KM12 colon
[39] = tested on: EKVX NSCLC
[40] = tested on: HS 578T breast
[41] = tested on: LOX IMVI melanoma
[42] = tested on: MCF7 breast
[43] = tested on: NCI-H522 lung
[44] = tested on: NCI-H460 lung
[45] = tested on: MALME-3M melanoma
[46] = tested on: COLO 205 colon
[47] = tested on: UACC-257 melanoma
[48] = tested on: SK-MEL-2 melanoma
[49] = tested on: ACHN renal
[50] = tested on: HOP-62 NSCLC
[51] = tested on: RPMI-8226 leukemia
[52] = tested on: SN12C renal
[53] = tested on: HT29 colon
[54] = tested on: HCT-116 colon
[55] = tested on: SR leukemia
[56] = tested on: RXF 393 renal
[57] = tested on: HL-60(TB) leukemia
[58] = tested on: HCC-2998 colon
[59] = tested on: SNB-19 CNS

## Cc1ncc([N+](=O)[O-])n1CCNS(=O)(=O)CCCn1ccnc1[N+](=O)[O-]
[1]
  TGI: > 100 µM
[2]
  TGI: > 100 µM
[3]
  TGI: > 100 µM
[4]
  TGI: > 100 µM
[5]
  TGI: > 100 µM
[6]
  TGI: > 100 µM
[7]
  TGI: > 100 µM
[8]
  TGI: > 100 µM
[9]
  TGI: > 100 µM
[10]
  TGI: > 100 µM
[11]
  TGI: > 100 µM
[12]
  TGI: > 100 µM
[13]
  TGI: > 100 µM
[14]
  TGI: > 100 µM
[15]
  TGI: > 100 µM
[16]
  TGI: > 100 µM
[17]
  TGI: > 100 µM
[18]
  TGI: > 100 µM
[19]
  TGI: > 100 µM
[20]
  TGI: > 100 µM
[21]
  TGI: > 100 µM
[22]
  TGI: > 100 µM
[23]
  TGI: > 100 µM
[24]
  TGI: > 100 µM
[25]
  TGI: > 100 µM
[26]
  TGI: > 100 µM
[27]
  TGI: > 100 µM
[28]
  TGI: > 100 µM
[29]
  TGI: > 100 µM
[30]
  TGI: > 100 µM
[31]
  TGI: > 100 µM
[32]
  TGI: > 100 µM
[33]
  TGI: > 100 µM
[34]
  TGI: > 100 µM
[35]
  TGI: > 100 µM
[36]
  TGI: > 100 µM
[37]
  TGI: > 100 µM
[38]
  TGI: > 100 µM
[39]
  TGI: > 100 µM
[40]
  TGI: > 100 µM
[41]
  TGI: > 100 µM
[42]
  TGI: > 100 µM
[43]
  TGI: > 100 µM
[44]
  TGI: > 100 µM
[45]
  TGI: > 100 µM
[46]
  TGI: > 100 µM
[47]
  TGI: > 100 µM
[48]
  TGI: > 100 µM
[49]
  TGI: > 100 µM
[50]
  TGI: > 100 µM
[51]
  TGI: > 100 µM
[52]
  TGI: > 100 µM
[53]
  TGI: > 100 µM
[54]
  TGI: > 100 µM
[55]
  TGI: > 100 µM
[56]
  TGI: > 100 µM
[57]
  TGI: > 100 µM

## CN(C)Cc1cc(C(C)(C)C)cc(CNC2CCCCC2)c1O
[1]
  TGI: > 100 µM
[2]
  TGI: > 100 µM
[3]
  TGI: 57.1 µM
[4]
  TGI: > 100 µM
[5]
  TGI: > 100 µM
[6]
  TGI: 69.4 µM
[7]
  TGI: > 100 µM
[58]
  TGI: 23.7 µM
[8]
  TGI: 73.3 µM
[9]
  TGI: > 100 µM
[10]
  TGI: > 100 µM
[12]
  TGI: > 100 µM
[13]
  TGI: 34.6 µM
[14]
  TGI: 33.5 µM
[15]
  TGI: > 100 µM
[17]
  TGI: > 100 µM
[18]
  TGI: 34.4 µM
[19]
  TGI: > 100 µM
[20]
  TGI: 76.2 µM
[21]
  TGI: > 100 µM
[22]
  TGI: > 100 µM
[23]
  TGI: > 100 µM
[24]
  TGI: 47.4 µM
[25]
  TGI: > 100 µM
[26]
  TGI: > 100 µM
[27]
  TGI: > 100 µM
[28]
  TGI: > 100 µM
[29]
  TGI: 59.7 µM
[30]
  TGI: 30.2 µM
[31]
  TGI: 43.7 µM
[32]
  TGI: > 100 µM
[33]
  TGI: > 100 µM
[34]
  TGI: > 100 µM
[35]
  TGI: 63.5 µM
[36]
  TGI: > 100 µM
[37]
  TGI: > 100 µM
[38]
  TGI: > 100 µM
[39]
  TGI: > 100 µM
[40]
  TGI: > 100 µM
[41]
  TGI: 76.5 µM
[42]
  TGI: > 100 µM
[43]
  TGI: 60.4 µM
[44]
  TGI: 44.6 µM
[45]
  TGI: 64 µM
[46]
  TGI: 33.3 µM
[47]
  TGI: 79.8 µM
[48]
  TGI: > 100 µM
[49]
  TGI: > 100 µM
[50]
  TGI: > 100 µM
[51]
  TGI: 57.9 µM
[52]
  TGI: > 100 µM
[53]
  TGI: 54.6 µM
[59]
  TGI: > 100 µM
[54]
  TGI: 71.5 µM
[55]
  TGI: 71.8 µM
[56]
  TGI: > 100 µM

## O=C1c2cc([N+](=O)[O-])cnc2S(=O)(=O)N1c1ccc(Br)cc1
[1]
  TGI: > 100 µM
[2]
  TGI: > 100 µM
[3]
  TGI: > 100 µM
[4]
  TGI: > 100 µM
[5]
  TGI: > 100 µM
[6]
  TGI: > 100 µM
[7]
  TGI: > 100 µM
[58]
  TGI: > 100 µM
[8]
  TGI: > 100 µM
[10]
  TGI: > 100 µM
[11]
  TGI: > 100 µM
[12]
  TGI: > 100 µM
[13]
  TGI: > 100 µM
[14]
  TGI: > 100 µM
[15]
  TGI: > 100 µM
[16]
  TGI: > 100 µM
[17]
  TGI: > 100 µM
[18]
  TGI: > 100 µM
[19]
  TGI: > 100 µM
[21]
  TGI: > 100 µM
[22]
  TGI: > 100 µM
[23]
  TGI: > 100 µM
[24]
  TGI: > 100 µM
[25]
  TGI: > 100 µM
[26]
  TGI: > 100 µM
[27]
  TGI: > 100 µM
[28]
  TGI: > 100 µM
[29]
  TGI: > 100 µM
[30]
  TGI: > 100 µM
[31]
  TGI: > 100 µM
[32]
  TGI: > 100 µM
[33]
  TGI: > 100 µM
[34]
  TGI: > 100 µM
[35]
  TGI: > 100 µM
[36]
  TGI: > 100 µM
[37]
  TGI: > 100 µM
[38]
  TGI: > 100 µM
[39]
  TGI: > 100 µM
[40]
  TGI: > 100 µM
[41]
  TGI: > 100 µM
[42]
  TGI: > 100 µM
[43]
  TGI: > 100 µM
[44]
  TGI: > 100 µM
[45]
  TGI: > 100 µM
[46]
  TGI: > 100 µM
[47]
  TGI: > 100 µM
[48]
  TGI: > 100 µM
[49]
  TGI: > 100 µM
[50]
  TGI: > 100 µM
[51]
  TGI: > 100 µM
[52]
  TGI: > 100 µM
[53]
  TGI: > 100 µM
[59]
  TGI: > 100 µM
[54]
  TGI: > 100 µM
[55]
  TGI: > 100 µM
[57]
  TGI: > 100 µM

## N#Cc1ccc(OC(=O)c2ccc(N=C(N)N)cc2)cc1
[1]
  TGI: > 100 µM
[2]
  TGI: > 100 µM
[3]
  TGI: > 100 µM
[4]
  TGI: > 100 µM
[5]
  TGI: > 100 µM
[6]
  TGI: > 100 µM
[7]
  TGI: > 100 µM
[8]
  TGI: > 100 µM
[9]
  TGI: > 100 µM
[10]
  TGI: > 100 µM
[11]
  TGI: > 100 µM
[12]
  TGI: > 100 µM
[13]
  TGI: > 100 µM
[14]
  TGI: > 100 µM
[15]
  TGI: > 100 µM
[16]
  TGI: > 100 µM
[17]
  TGI: > 100 µM
[18]
  TGI: > 100 µM
[19]
  TGI: > 100 µM
[20]
  TGI: > 100 µM
[21]
  TGI: > 100 µM
[22]
  TGI: > 100 µM
[23]
  TGI: > 100 µM
[24]
  TGI: > 100 µM
[25]
  TGI: > 100 µM
[26]
  TGI: > 100 µM
[27]
  TGI: > 100 µM
[28]
  TGI: > 100 µM
[29]
  TGI: > 100 µM
[30]
  TGI: > 100 µM
[31]
  TGI: 54.8 µM
[32]
  TGI: > 100 µM
[33]
  TGI: > 100 µM
[34]
  TGI: > 100 µM
[35]
  TGI: > 100 µM
[36]
  TGI: > 100 µM
[37]
  TGI: > 100 µM
[38]
  TGI: > 100 µM
[39]
  TGI: > 100 µM
[40]
  TGI: > 100 µM
[41]
  TGI: > 100 µM
[42]
  TGI: > 100 µM
[43]
  TGI: > 100 µM
[44]
  TGI: > 100 µM
[45]
  TGI: > 100 µM
[46]
  TGI: > 100 µM
[47]
  TGI: > 100 µM
[48]
  TGI: > 100 µM
[49]
  TGI: > 100 µM
[50]
  TGI: > 100 µM
[51]
  TGI: > 100 µM
[52]
  TGI: > 100 µM
[53]
  TGI: > 100 µM
[59]
  TGI: > 100 µM
[54]
  TGI: > 100 µM
[55]
  TGI: > 100 µM
[56]
  TGI: > 100 µM
[57]
  TGI: > 100 µM

Reference: PubChem BioAssay (NCI)
